Marks after values point to notes of the source that are not given here. Blank lines part the entries; values can stand above or below the compound they belong to.
What was measured:
[1] = salt screen, XRPD of damp, dried and 40° C./75% RH stored samples (Salt Preparation Methods 1 and 2); assay type: physicochemical; set-up: key to XRPD Analysis Damp/Dry: A = amorphous; Evap. = isolated via evaporation
Experimental: (§1) Salt Preparation Method 1: Approximately 25 mg of Compound 1 (free base) was weighed out into 1.5 mL screw-cap vials and a stirrer bar was added. For solid counterions, the appropriate amount of acid (1.0 or 2.0 equiv.) was weighed into separate 1.5 mL screw-cap vials. 100 μL of the appropriate solvent system was added to both the Compound 1 and the solid counterions. Stock solutions of liquid counterions were prepared, such that 100 μL contained 1.0 or 2.0 equiv. of acid. See counterion and solvent lists in Table 60 and Table 61 respectively.
(§2) The samples were stirred at 40° C. for 5-10 min and then the acid solutions were added to Compound 1, rinsing out the transfer vial with a further 50 μL of solvent. […] Experiments were temperature cycled between 40° C. and 5° C. (1 h hold; 0.1° C./min ramp/cool) for ca. 24-68 h. Anti-solvent addition (ASA) was carried out to slurries at 5° C. then experiments were heated to 30° C. over 1 h. ASA was carried out at 30° C. or 40° C. where clear solutions or gums were observed.
(§3) Temperature cycling was then continued for ca. 16-69 h, followed by further ASA and temperature cycling if required. Material was isolated at 5° C. and analyzed damp by XRPD. All isolated material was dried under vacuum at ca. 40° C. for ca. 17-91 h then re-analyzed by XRPD. The XRPD plate was stored at 40° C./75% RH for 24-48 h and then samples re-analyzed. Solutions were stored uncapped at ambient temperature to evaporate. Any residual solids were analyzed by XRPD.
(§4) Salt Preparation Method 2: The general procedure adopted in preparing the potential salts is outlined below. A known mass of Compound 1 (free base) and a known volume of the appropriate solvent system were added to 20 mL scintillation vials. The required mol. equiv. of the appropriate counterions were added to the vials as solutions or slurries in the corresponding solvent system.
(§5) The experiments were stirred at 40° C. for ca. 1 h, and then temperature cycled between 40° C. and 5° C. with 0.1° C./min ramp and 1 h hold between each step. Anti-solvent additions and subsequent slurrying at 5° C. were employed in order to facilitate crystallization. […] The damp and dried solids were subsampled and analyzed by XRPD. Where applicable, the dried solids were stored at 40° C./75% RH for 24-48 h in order to improve the crystallinity and/or facilitate solid form conversion to the desired form.

[2] = as above; assay type: physicochemical; set-up: key: A = amorphous; Evap. = isolated via evaporation
Experimental: as §1, §2, §3, §4, §5

[3] = as above; assay type: physicochemical; set-up: key: A = amorphous; 1 = Form 1 Compound 1 hydrogen chloride; PC = poorly crystalline; conditions: AS Heptane
Experimental: as §1, §2, §3, §4, §5

[4] = as above; assay type: physicochemical; set-up: key: A = amorphous; PC = poorly crystalline; 1 = Form 1 Compound 1 hydrogen phosphate; 2 = Form 2 Compound 1 hydrogen phosphate; 3 = Form 3 Compound 1 hydrogen phosphate; 4 = Form 4 Compound 1 hydrogen phosphate; conditions: Phosphoric acid, 1 equiv.
Experimental: as §1, §2, §3, §4, §5

[5] = hydration mapping studies (slurries at different water activities, Example 17); assay type: physicochemical; set-up: key to XRPD, hydration studies - dried samples: A: amorphous; Crystalline Form 10 mono(hydrogen sulfate)
Experimental: Example 17—Hydration Mapping Studies-Crystalline Form 2 Compound 1 di(hydrogen sulfate) trihydrate, Crystalline Form 3 Compound 1 di(hydrogen sulfate), and Blend: The effects of different water activities on crystalline Form 2 Compound 1 di(hydrogen sulfate) trihydrate, crystalline Form 3 Compound 1 di(hydrogen sulfate) and a blend of the two were investigated. The “blend” was prepared by mixing crystalline Form 2 Compound 1 di(hydrogen sulfate) trihydrate and crystalline Form 3 Compound 1 di(hydrogen sulfate) in a 1:1 ratio. To the vials containing the required solid material, the appropriate solvent system was added to form slurries. The slurry samples were stirred at the required temperatures during and after the solvent addition. Where dissolution was observed post-solvent addition, additional solid was added to re-saturate the sample. After stirring at the required temperature for 48 hours, the residual solids left in the vials were analyzed by XRPD to assess the solid forms. The analyzed samples were then dried on the XRPD plate under reduced pressure at 40° C. for 24 hr. The dried samples were analyzed by XRPD.

[6] = salt screen, XRPD of damp, dried and 40° C./75% RH stored samples (Salt Preparation Methods 1 and 2); assay type: physicochemical; set-up: key: A = amorphous; PC = poorly crystalline; *= predominantly; 1 = Form 1 Compound 1 benzoate; 2 = Form 2 Compound 1 benzoate; 3 = Form 3 Compound 1 benzoate; conditions: Benzoic acid, 1 equiv.
Experimental: as §1, §2, §3, §4, §5

[7] = biological target: T1, ENT1 (Homo sapiens, UniProt Q99808); experiment: ENT1 activity: intracellular uptake of 5-Ethynyl-Uridine (5EU) in whole blood, CD19 positive cells, flow cytometry; assay type: cell-based; conditions: 5EU 60 min at 37° C.
T1 construct: endogenous in cells; host or cells: CD19-positive cells (B cells) in whole blood from healthy donors
T1 sequence (Q99808 1-456): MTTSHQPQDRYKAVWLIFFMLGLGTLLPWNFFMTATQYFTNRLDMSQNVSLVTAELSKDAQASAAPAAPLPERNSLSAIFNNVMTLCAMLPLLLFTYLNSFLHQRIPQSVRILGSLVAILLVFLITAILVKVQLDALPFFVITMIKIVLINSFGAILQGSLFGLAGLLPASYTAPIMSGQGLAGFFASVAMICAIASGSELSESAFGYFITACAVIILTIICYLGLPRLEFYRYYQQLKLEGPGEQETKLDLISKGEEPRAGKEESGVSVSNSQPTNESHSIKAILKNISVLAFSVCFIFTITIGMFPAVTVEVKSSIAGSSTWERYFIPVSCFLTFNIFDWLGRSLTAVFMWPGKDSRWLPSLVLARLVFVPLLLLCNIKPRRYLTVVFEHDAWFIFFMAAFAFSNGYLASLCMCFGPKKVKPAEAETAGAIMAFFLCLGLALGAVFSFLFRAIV
Experimental: Example 20-ENT1 Activity of Crystalline Form 2 Compound 1 di(hydrogen sulfate) trihydrate compared to Compound 1 (free base)-Initial and after Six-Month Storage: (1) Initial time: Whole blood from 8 healthy donors was incubated with 5-Ethynyl-Uridine (5EU, CAS #: 69075-42-9, Jena Bioscience) for 60 min at 37° C., in the absence or presence of freshly suspended 1 μM Compound 1 (free base) or 1 μM Form 2 Compound 1 di(hydrogen sulfate) trihydrate. Intracellular uptake of 5EU through ENT1 transporters was assessed by standard flow cytometry and ENT1 activity was determined.
In FIG. 101, the data are expressed as % of ENT1 activity in untreated CD19 cells, arbitrary set at 100%, and are the means±SD of three independent experiments. Statistical analysis was performed using one-way analysis of variance (ANOVA) followed by Tukey's post hoc analysis with Prism 10.1.2 software (GraphPad Software). *: p<0.0001 vs. untreated B cells; ns: non-significant.
(2) Six months: Compound stability was evaluated on suspended solutions of Compound 1 (free base) or Form 2 Compound 1 di(hydrogen sulfate) trihydrate that were stored at −20° C. for 6 months. On the day of the experiment, whole blood from 3 healthy donors was incubated with 5-Ethynyl-Uridine (5EU, CAS #: 69075-42-9, Jena Bioscience) for 60 min at 37° C., in the absence or presence of either 1 μM Compound 1 (free base) or 1 μM Form 2 Compound 1 di(hydrogen sulfate) trihydrate of 6-month-old solutions. Intracellular uptake of 5EU through ENT1 transporters was assessed by standard flow cytometry and ENT1 activity was determined.
In FIG. 102, the data are expressed as % of ENT1 activity in untreated CD19 cells, arbitrary set at 100%, and are the means±SD. Statistical analysis was performed using two-way analysis of variance (ANOVA) with Prism 10.1.2 software (GraphPad Software). *: p<0.05 vs. untreated B cells; **: p<0.01 vs. untreated B cells; ns: non-significant.

[8] = Hydrochloric acid, 2 equiv., Acetonitrile, AS tBME
[9] = Hydrochloric acid, 2 equiv., Ethyl acetate, AS Heptane
[10] = Hydrochloric acid, 2 equiv., IPA:H2O (75:25% v/v), AS tBME
[11] = Hydrochloric acid, 2 equiv., MEK, AS Heptane
[12] = Hydrochloric acid, 2 equiv., THF, AS Heptane
[13] = Hydrochloric acid, 2 equiv., Ethanol*
[14] = Phosphoric acid, 1 equiv., Acetonitrile, AS tBME
[15] = Phosphoric acid, 1 equiv., IPA:H2O (75:25% v/v), AS tBME
[16] = Phosphoric acid, 1 equiv., Ethyl acetate
[17] = Benzoic acid, 1 equiv., Ethanol, AS Heptane
[18] = Benzoic acid, 1 equiv., MEK, AS Heptane
[19] = Benzoic acid, 1 equiv., THF, AS Heptane

SMILES: Cl [Hydrochloric acid, 2 equiv.]
- XRPD Analysis 40° C. 75% RH ([1]; Hydrochloric acid, 2 equiv., Ethanol*, AS Heptane): 1 (PC)
- XRPD Analysis 40° C. 75% RH [2, 8]: A
- XRPD Analysis Damp [2, 8]: A
- XRPD Analysis Dry [2, 8]: A
- XRPD Analysis 40° C. 75% RH [2, 9]: A
- XRPD Analysis Damp [2, 9]: A
- XRPD Analysis Dry [2, 9]: A
- XRPD Analysis 40° C. 75% RH [2, 10]: A
- XRPD Analysis Damp [2, 10]: A
- XRPD Analysis Dry [2, 10]: A
- XRPD Analysis 40° C. 75% RH [2, 11]: A
- XRPD Analysis Damp [2, 11]: A
- XRPD Analysis Dry [2, 11]: A
- XRPD Analysis 40° C. 75% RH [2, 12]: A
- XRPD Analysis Damp [2, 12]: A
- XRPD Analysis Dry [2, 12]: A
- XRPD Analysis Damp [3, 13]: 1
- XRPD Analysis Dry [3, 13]: 1

- XRPD Analysis Damp [2, 14]: A
- XRPD Analysis Dry [2, 14]: A
- XRPD Analysis 40° C. 75% RH [2, 15]: A
- XRPD Analysis Damp [2, 15]: A
- XRPD Analysis Dry [2, 15]: A
- XRPD Analysis Damp [3, 16]: PC
- XRPD Analysis Dry [3, 16]: PC
- XRPD Analysis 40° C. 75% RH ([4]; Acetonitrile, AS tBME): 4
- XRPD Analysis 40° C. 75% RH ([4]; Ethanol, AS Heptane): 1
- XRPD Analysis Damp ([4]; Ethanol, AS Heptane): 1
- XRPD Analysis Dry ([4]; Ethanol, AS Heptane): 1
- XRPD Analysis 40° C. 75% RH ([4]; Ethyl acetate, AS Heptane): 2
- XRPD Analysis 40° C. 75% RH ([4]; MEK, AS Heptane): 2
- XRPD Analysis Damp ([4]; MEK, AS Heptane): 3
- XRPD Analysis Dry ([4]; MEK, AS Heptane): 2
- XRPD Analysis 40° C. 75% RH ([4]; THF, AS Heptane): 1
- XRPD Analysis Damp ([4]; THF, AS Heptane): 1
- XRPD Analysis Dry ([4]; THF, AS Heptane): 1
SMILES: O=P(O)(O)O [Phosphoric acid, 1 equiv.]

SMILES: COc1cc(C(=O)O[C@@H]2CCCOc3cc(cc(OC)c3OC)C(=O)NCCCN3CCCN(CC2)CC3)cc(OC)c1OC.O=S(=O)(O)O.O=S(=O)(O)O [blended material]
- XRPD, hydration studies - dried samples ([5]; 50° C., Acetonitrile:Water, aw 0.9, dried 40° C. reduced pressure 24 hr): M10
- solid form by XRPD after slurrying ([5]; acetonitrile:water solvent systems with aw≤0.5, 48 hours): some crystalline Form 3 Compound 1 di(hydrogen sulfate) was retained
- solid form by XRPD after slurrying ([5]; acetonitrile:water systems with aw>0.5, 48 hours): Crystalline Form 2 Compound 1 di(hydrogen sulfate) trihydrate was observed
- solid form by XRPD after slurrying ([5]; all the 2-propanol:water solvent systems, 48 hours): Crystalline Form 2 Compound 1 di(hydrogen sulfate) trihydrate was also observed

SMILES: O=C(O)c1ccccc1 [Benzoic acid, 1 equiv.]
- XRPD Analysis Damp/Dry ([1]; Benzoic acid, 1 equiv., Acetonitrile, AS BME, (evap.)): A (evap.)
- XRPD Analysis 40° C. 75% RH [1, 17]: 2 + 3
- XRPD Analysis Damp [1, 17]: 2*
- XRPD Analysis 40° C. 75% RH ([1]; Benzoic acid, 1 equiv., IPA:H2O (75:25% v/v), AS tBME): 2 + 3
- XRPD Analysis 40° C. 75% RH [1, 18]: 1 + 3
- XRPD Analysis Damp [1, 18]: 1*
- XRPD Analysis Dry [1, 18]: 1, PC
- XRPD Analysis Damp [1, 19]: 1 + 2
- XRPD Analysis Dry [2, 17]: A
- XRPD Analysis Dry [2, 19]: A
- XRPD Analysis 40° C. 75% RH ([6]; Ethyl acetate, AS Heptane): 1
- XRPD Analysis Damp ([6]; Ethyl acetate, AS Heptane): 1
- XRPD Analysis Dry ([6]; Ethyl acetate, AS Heptane): 1
- XRPD Analysis Damp ([6]; IPA:H2O (75:25% v/v), AS tBME): 2
- XRPD Analysis Dry ([6]; IPA:H2O (75:25% v/v), AS tBME): 2
- XRPD Analysis 40° C. 75% RH ([6]; THF, AS Heptane): 3

SMILES: COc1cc(C(=O)O[C@@H]2CCCOc3cc(cc(OC)c3OC)C(=O)NCCCN3CCCN(CC2)CC3)cc(OC)c1OC [Compound 1, (16R)-9,10-dimethoxy-6-oxo-12-oxa-1,5,19-triazatricyclo[17.3.2.1^7,11]pentacosa-7(25), 8,10-trien-16-yl 3,4,5-trimethoxybenzoate]
- decrease of ENT1 activity compared to untreated CD19 positive cells ([7]; 1 μM of solutions stored at −20° C. for 6 months, whole blood from 3 healthy donors): No significant effect
- decrease of ENT1 activity compared to untreated CD19 positive cells ([7]; 1 μM, freshly suspended, whole blood from 8 healthy donors): 49.8%
